Measurements as given in ChEMBL document CHEMBL5723379, “Affinity On-target Cellular Literature for EUbOPEN Chemogenomic Library” (2024).
Values belong to the compound of their own block, whether it stands above or below them.

What was measured:
[1] = target: T1, Oxysterols receptor LXR-alpha (Homo sapiens, UniProt Q13133); assay: Affinity On-target Cellular interaction: (Reporter gene assay (HEK293T cells)) EUB0001482aCl NR1H3; assay type: functional, cell-based, HEK-293T; set-up: mode of action Agonist, recommended concentration 10 uM
T1 sequence (Q13133 whole entry): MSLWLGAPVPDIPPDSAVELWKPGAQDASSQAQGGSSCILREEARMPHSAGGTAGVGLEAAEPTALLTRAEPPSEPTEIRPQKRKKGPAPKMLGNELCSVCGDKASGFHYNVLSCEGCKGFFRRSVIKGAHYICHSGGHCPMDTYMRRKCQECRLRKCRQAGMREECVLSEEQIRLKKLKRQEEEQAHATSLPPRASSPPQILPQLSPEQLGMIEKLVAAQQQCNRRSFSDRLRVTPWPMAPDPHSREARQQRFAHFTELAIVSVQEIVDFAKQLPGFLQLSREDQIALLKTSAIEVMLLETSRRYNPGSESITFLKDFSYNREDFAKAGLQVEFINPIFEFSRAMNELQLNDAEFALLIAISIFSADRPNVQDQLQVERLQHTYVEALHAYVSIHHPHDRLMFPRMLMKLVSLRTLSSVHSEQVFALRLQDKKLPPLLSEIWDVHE

[2] = target: T2, Oxysterols receptor LXR-beta (Homo sapiens, UniProt P55055); assay: Affinity On-target Cellular interaction: (Reporter gene assay (HEK293T cells)) EUB0001482aCl NR1H2; assay type: functional, cell-based, HEK-293T; set-up: mode of action Agonist, recommended concentration 10 uM
T2 sequence (P55055 whole entry): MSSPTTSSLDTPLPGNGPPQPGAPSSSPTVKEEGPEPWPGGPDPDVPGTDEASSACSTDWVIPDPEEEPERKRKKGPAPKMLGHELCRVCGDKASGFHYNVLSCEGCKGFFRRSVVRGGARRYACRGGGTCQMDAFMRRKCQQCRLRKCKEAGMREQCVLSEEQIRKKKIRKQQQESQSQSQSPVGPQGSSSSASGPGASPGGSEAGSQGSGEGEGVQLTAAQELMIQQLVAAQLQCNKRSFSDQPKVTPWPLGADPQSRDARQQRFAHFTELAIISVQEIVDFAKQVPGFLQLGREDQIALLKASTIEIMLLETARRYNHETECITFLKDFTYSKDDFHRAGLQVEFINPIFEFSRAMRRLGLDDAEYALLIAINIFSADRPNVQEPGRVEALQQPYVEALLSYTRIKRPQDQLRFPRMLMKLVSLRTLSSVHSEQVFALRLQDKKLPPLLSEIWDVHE

[3] = target: T3, Nuclear receptor ROR-alpha (Homo sapiens, UniProt P35398); assay: Affinity On-target Cellular interaction: (Reporter gene assay (HEK293T cells)) EUB0001157a RORA; assay type: functional, cell-based, HEK-293T; set-up: mode of action Inverse Agonist, recommended concentration 10 uM
[4] = target: T4, Nuclear receptor ROR-beta (Homo sapiens, UniProt Q92753); assay: Affinity On-target Cellular interaction: (Reporter gene assay (HEK293T cells)) EUB0001157a RORB; assay type: functional, cell-based, HEK-293T; set-up: mode of action Inverse Agonist, recommended concentration 10 uM
T4 sequence (Q92753 whole entry): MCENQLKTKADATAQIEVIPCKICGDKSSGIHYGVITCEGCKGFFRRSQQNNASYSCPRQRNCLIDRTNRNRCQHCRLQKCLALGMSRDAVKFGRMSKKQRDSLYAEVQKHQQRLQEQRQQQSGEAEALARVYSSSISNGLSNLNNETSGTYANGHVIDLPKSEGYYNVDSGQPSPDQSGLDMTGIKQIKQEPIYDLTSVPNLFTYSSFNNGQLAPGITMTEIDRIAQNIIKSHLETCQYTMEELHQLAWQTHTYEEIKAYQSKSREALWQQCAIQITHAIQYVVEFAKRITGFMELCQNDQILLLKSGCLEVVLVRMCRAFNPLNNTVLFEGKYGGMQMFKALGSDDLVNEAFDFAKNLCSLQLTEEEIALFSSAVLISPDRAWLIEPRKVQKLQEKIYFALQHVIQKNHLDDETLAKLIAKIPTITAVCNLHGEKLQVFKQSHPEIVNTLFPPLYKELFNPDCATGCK

[5] = target: T5, Nuclear receptor ROR-gamma (Homo sapiens, UniProt P51449); assay: Affinity On-target Cellular interaction: (Reporter gene assay (HEK293T cells)) EUB0001157a RORC; assay type: functional, cell-based, HEK-293T; set-up: mode of action Inverse Agonist, recommended concentration 10 uM
T5 sequence (P51449 whole entry): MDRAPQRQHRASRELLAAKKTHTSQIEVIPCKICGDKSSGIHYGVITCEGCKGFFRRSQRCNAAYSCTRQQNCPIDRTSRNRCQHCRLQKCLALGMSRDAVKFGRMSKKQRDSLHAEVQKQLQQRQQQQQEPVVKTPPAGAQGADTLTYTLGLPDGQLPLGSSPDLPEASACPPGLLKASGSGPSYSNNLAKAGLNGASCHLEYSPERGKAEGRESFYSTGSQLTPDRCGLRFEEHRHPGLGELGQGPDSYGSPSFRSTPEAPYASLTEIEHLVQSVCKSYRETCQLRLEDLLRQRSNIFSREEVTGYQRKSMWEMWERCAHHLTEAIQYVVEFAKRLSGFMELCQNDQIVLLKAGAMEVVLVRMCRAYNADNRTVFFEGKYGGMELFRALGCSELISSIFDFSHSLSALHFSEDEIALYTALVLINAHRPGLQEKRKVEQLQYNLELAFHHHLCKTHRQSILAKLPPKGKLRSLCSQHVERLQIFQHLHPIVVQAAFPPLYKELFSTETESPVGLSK

[6] = target: Histone-lysine N-methyltransferase EZH1 (Homo sapiens, UniProt Q92800); assay: Affinity On-target Cellular interaction: (Protein substrate methylation in WSU-DLCL2 cells) EUB0002228a EZH1; assay type: functional, cell-based, WSUDLCL2; set-up: mode of action Inhibitor, recommended concentration 1 uM
[7] = target: Triacylglycerol hydrolase DDHD2 (Homo sapiens, UniProt O94830); assay: Affinity On-target Cellular interaction: (Inhibition of DDHD2 in HEK293T cells measured by competitive activity-based protein profiling) EUB0002612a DDHD2; assay type: functional, cell-based, HEK-293T; set-up: mode of action Inhibitor, recommended concentration 1 uM
[8] = target: Sodium/glucose cotransporter 2 (Homo sapiens, UniProt P31639); assay: Affinity On-target Cellular interaction: (AMG uptake assay in presence of 25% human plasma, 293.ETN cells) EUB0002515a SLC5A2; assay type: functional, HEK293; set-up: mode of action Inhibitor, recommended concentration 1 uM
[9] = target: T2, Oxysterols receptor LXR-beta; assay: Affinity On-target Cellular interaction: (Reporter gene assay (HEK293T cells)) EUB0001166a NR1H2; assay type: functional, cell-based, HEK-293T; set-up: mode of action Agonist, recommended concentration 1 uM
[10] = target: T1, Oxysterols receptor LXR-alpha; assay: Affinity On-target Cellular interaction: (Reporter gene assay (HEK293T cells)) EUB0001166a NR1H3; assay type: functional, cell-based, HEK-293T; set-up: mode of action Agonist, recommended concentration 1 uM
[11] = target: T3, Nuclear receptor ROR-alpha; assay: Affinity On-target Cellular interaction: (Reporter gene assay (HEK293T cells)) EUB0001158a RORA; assay type: functional, cell-based, HEK-293T; set-up: mode of action Inverse Agonist, recommended concentration 1 uM
[12] = target: T4, Nuclear receptor ROR-beta; assay: Affinity On-target Cellular interaction: (Reporter gene assay (HEK293T cells)) EUB0001158a RORB; assay type: functional, cell-based, HEK-293T; set-up: mode of action Inverse Agonist, recommended concentration 1 uM
[13] = target: T5, Nuclear receptor ROR-gamma
Histone deacetylase 1 = Histone deacetylase 1 (Homo sapiens, UniProt Q13547); assay: Affinity On-target Cellular interaction: (Inhibition of enzyme activity in 293T cells transfected with vector alone) EUB0002519a HDAC1; assay type: functional, cell-based, HEK-293T; set-up: mode of action Inhibitor, recommended concentration 1 uM
Histone deacetylase 2 = Histone deacetylase 2 (Homo sapiens, UniProt Q92769); assay: Affinity On-target Cellular interaction: (Inhibition of enzyme activity in 293T cells transfected with vector alone) EUB0002519a HDAC2; assay type: functional, cell-based, HEK-293T; set-up: mode of action Inhibitor, recommended concentration 1 uM
[14] = target: Sodium- and chloride-dependent glycine transporter 1 (Homo sapiens, UniProt P48067); assay: Affinity On-target Cellular interaction: (Inhibition of [14C]glycine uptake in human neuroblastoma cells transfected with SLC6A9) EUB0002626aCl SLC6A9; assay type: functional, cell-based, BE(2)-C; set-up: mode of action Inhibitor, recommended concentration 1 uM
[15] = target: Poly [ADP-ribose] polymerase 1 (Homo sapiens, UniProt P09874); assay: Affinity On-target Cellular interaction: (Inhibition of H2O2 induced PAR formation in Capan-1 cells) EUB0002633aCl PARP1; assay type: functional, cell-based; set-up: mode of action Inhibitor, recommended concentration 1 uM
[16] = target: T6, Peroxisome proliferator-activated receptor delta (Homo sapiens, UniProt Q03181); assay: Affinity On-target Cellular interaction: (Reporter gene assay (HEK293T cells)) EUB0001483aCl PPARD; assay type: functional, cell-based, HEK-293T; set-up: mode of action Antagonist, recommended concentration 10 uM
T6 sequence (Q03181 whole entry): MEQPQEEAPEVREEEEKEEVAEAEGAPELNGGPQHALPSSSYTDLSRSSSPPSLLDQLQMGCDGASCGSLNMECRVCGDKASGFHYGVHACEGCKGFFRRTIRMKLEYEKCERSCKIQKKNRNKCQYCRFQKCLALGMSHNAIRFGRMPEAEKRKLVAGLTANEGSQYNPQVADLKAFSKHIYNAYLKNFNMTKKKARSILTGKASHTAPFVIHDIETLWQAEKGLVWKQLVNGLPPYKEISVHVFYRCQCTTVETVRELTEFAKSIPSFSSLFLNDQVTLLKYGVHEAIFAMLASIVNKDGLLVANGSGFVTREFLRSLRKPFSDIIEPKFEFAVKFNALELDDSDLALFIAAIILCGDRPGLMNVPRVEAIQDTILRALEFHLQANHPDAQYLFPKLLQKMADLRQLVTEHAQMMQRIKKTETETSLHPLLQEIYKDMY

[17] = target: Nuclear receptor subfamily 1 group D member 2 (Homo sapiens, UniProt Q14995); assay: Affinity On-target Cellular interaction: (Reporter gene assay (HEK293T cells)) EUB0001155a NR1D2; assay type: functional, cell-based, HEK-293T; set-up: mode of action Agonist, recommended concentration 10 uM
[18] = target: Nuclear receptor subfamily 1 group D member 1 (Homo sapiens, UniProt P20393); assay: Affinity On-target Cellular interaction: (Reporter gene assay (HEK293T cells)) EUB0001155a NR1D1; assay type: functional, cell-based, HEK-293T; set-up: mode of action Agonist, recommended concentration 10 uM
Chain of Nuclear receptor subfamily 1 group D member 1 (P20393 whole entry): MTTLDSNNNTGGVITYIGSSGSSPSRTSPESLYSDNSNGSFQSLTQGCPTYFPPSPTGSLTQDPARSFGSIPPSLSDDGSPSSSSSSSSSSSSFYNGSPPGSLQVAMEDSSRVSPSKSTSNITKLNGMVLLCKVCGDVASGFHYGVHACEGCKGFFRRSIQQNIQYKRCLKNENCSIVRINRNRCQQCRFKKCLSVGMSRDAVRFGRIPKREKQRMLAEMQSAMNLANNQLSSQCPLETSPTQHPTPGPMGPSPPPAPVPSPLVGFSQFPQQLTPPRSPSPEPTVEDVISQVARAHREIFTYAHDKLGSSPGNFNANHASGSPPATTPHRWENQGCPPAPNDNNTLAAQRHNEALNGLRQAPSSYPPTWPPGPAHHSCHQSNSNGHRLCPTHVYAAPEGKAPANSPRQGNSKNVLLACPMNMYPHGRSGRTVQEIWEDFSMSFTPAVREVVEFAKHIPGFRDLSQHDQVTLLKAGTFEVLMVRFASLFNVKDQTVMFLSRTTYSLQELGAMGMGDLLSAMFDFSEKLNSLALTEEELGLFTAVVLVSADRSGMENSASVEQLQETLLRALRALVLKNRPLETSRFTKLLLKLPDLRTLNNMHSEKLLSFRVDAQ

T3 sequence (P35398 whole entry): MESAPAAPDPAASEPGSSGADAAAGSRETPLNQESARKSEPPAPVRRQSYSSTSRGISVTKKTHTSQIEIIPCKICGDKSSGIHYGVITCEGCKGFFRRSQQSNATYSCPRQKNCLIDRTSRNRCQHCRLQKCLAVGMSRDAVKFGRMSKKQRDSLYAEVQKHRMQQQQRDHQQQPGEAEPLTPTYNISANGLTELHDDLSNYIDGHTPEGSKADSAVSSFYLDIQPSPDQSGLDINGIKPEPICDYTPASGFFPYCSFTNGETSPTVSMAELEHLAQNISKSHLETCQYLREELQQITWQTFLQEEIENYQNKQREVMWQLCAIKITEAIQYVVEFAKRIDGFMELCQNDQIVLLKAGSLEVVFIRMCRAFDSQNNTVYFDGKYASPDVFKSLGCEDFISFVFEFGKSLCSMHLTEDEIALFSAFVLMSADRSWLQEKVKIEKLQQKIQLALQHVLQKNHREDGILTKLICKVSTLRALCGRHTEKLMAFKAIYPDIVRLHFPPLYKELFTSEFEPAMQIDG
Chain of Poly [ADP-ribose] polymerase 1 (P09874 whole entry): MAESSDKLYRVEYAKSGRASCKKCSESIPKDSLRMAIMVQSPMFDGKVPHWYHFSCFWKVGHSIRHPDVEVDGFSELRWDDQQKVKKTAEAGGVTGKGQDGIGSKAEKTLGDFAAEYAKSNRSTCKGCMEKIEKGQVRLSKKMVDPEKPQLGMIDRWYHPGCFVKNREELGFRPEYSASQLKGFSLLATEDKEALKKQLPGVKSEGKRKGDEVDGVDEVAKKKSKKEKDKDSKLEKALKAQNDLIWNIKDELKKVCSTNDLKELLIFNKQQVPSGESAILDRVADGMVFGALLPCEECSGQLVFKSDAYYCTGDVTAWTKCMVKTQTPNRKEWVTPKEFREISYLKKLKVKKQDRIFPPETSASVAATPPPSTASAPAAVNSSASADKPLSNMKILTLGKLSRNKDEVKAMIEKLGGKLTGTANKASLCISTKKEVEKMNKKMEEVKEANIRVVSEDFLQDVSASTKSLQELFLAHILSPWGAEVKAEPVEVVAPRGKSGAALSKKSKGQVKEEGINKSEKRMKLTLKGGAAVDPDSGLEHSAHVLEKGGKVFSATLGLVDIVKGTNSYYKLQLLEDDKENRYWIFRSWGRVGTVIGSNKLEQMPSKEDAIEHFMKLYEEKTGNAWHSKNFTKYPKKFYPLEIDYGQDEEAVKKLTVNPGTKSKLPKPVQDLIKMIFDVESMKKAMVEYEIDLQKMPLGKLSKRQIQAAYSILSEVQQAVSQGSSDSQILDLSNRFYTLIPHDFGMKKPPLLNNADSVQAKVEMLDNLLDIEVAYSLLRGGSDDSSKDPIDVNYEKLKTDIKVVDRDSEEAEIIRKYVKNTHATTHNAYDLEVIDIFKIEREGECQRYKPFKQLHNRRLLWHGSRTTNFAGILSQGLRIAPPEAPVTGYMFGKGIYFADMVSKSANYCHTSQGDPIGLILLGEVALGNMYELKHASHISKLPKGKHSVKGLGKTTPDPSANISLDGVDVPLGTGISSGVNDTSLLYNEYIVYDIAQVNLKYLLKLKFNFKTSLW
Chain of Histone deacetylase 1 (Q13547 whole entry): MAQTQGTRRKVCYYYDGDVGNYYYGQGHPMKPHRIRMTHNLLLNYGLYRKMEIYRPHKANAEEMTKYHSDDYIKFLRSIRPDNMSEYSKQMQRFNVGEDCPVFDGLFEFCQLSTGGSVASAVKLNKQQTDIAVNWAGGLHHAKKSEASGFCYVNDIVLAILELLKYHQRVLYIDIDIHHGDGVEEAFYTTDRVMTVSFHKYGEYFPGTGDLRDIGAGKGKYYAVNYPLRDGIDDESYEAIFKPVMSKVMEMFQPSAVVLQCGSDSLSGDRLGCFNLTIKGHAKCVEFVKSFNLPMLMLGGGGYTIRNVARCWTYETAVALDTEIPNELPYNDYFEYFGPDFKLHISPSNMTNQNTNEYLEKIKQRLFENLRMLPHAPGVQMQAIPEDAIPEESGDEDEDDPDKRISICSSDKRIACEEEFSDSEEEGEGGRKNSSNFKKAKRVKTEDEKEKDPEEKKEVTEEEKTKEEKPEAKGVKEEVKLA
Chain of Histone-lysine N-methyltransferase EZH1 (Q92800 whole entry): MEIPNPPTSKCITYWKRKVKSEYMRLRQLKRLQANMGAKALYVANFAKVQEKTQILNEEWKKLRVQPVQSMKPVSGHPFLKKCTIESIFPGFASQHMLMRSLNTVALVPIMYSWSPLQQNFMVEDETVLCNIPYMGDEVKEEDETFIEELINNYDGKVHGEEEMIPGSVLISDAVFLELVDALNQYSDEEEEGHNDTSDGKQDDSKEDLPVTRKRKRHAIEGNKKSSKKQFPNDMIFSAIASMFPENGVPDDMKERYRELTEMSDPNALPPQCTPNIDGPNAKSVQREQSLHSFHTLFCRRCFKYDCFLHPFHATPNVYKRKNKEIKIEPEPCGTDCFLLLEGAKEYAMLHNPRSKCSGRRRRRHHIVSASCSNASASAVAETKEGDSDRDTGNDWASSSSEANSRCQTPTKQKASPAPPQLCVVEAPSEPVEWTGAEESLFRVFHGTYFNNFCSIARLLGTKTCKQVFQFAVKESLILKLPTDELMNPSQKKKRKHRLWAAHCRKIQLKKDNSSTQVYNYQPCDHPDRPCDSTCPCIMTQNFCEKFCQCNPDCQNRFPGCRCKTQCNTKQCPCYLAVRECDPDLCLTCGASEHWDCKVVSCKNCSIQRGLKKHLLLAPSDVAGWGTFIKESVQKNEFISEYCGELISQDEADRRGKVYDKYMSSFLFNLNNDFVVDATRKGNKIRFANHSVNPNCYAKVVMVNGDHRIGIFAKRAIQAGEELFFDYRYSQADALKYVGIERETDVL
Chain of Sodium- and chloride-dependent glycine transporter 1 (P48067 whole entry): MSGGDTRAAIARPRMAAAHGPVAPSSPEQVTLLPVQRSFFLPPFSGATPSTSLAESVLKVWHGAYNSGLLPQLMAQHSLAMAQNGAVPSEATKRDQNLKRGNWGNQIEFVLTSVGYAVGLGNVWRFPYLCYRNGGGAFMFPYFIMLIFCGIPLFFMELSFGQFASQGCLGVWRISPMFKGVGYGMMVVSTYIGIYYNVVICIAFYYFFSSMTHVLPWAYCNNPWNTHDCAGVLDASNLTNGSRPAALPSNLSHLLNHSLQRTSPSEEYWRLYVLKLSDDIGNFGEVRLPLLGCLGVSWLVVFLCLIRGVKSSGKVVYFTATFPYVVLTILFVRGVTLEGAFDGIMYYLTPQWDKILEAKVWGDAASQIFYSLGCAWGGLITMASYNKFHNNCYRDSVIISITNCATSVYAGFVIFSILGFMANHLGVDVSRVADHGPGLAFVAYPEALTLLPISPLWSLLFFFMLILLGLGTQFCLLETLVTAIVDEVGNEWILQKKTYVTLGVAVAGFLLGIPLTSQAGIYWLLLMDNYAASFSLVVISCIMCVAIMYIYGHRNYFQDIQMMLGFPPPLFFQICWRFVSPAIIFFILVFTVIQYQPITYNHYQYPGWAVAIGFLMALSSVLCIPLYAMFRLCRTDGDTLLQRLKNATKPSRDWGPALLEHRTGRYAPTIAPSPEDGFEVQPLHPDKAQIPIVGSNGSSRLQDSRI
Chain of Histone deacetylase 2 (Q92769 whole entry): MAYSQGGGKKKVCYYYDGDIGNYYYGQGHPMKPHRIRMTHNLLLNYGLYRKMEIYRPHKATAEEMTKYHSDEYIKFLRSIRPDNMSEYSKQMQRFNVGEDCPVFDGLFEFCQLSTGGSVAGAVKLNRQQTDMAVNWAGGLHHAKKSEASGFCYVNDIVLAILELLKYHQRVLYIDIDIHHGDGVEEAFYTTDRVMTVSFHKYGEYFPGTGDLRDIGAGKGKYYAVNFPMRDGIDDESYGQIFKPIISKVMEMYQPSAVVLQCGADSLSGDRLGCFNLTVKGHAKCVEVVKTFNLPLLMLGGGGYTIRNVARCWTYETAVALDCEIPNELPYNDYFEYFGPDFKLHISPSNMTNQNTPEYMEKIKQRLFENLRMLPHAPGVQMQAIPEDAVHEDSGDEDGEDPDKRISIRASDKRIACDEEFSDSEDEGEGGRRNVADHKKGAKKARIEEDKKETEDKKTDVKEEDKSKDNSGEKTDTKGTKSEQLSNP

EC50 [1]: 3300 nM
EC50 [2]: 2900 nM
SMILES: C[C@H](CCOc1cccc(CC(=O)O)c1)N(Cc1cccc(C(F)(F)F)c1Cl)CC(c1ccccc1)c1ccccc1

IC50 [3]: 500 nM
IC50 [4]: 1500 nM
IC50 [5]: 3200 nM
SMILES: O=S(=O)(Nc1ccc(C(O)(C(F)(F)F)C(F)(F)F)cc1)c1cccs1

IC50 [6]: < 100 nM
SMILES: CCN(c1cc(C#CCN2CCOCC2)cc(C(=O)NCc2c(C)cc(C)[nH]c2=O)c1C)[C@H]1CC[C@H](N(C)CCOC)CC1

IC50 [7]: 3.6 nM
SMILES: O=C(N(CCc1ccccc1)C1CCCCC1)n1ncc(-c2ccc(OC(F)(F)F)cc2)n1

IC50 [8]: 2 nM
SMILES: OC[C@H]1O[C@@H](c2ccc(Cl)c(Cc3ccc(OCCOC4CC4)cc3)c2)[C@H](O)[C@@H](O)[C@@H]1O [BEXAGLIFLOZIN]

EC50 [9]: 300 nM
EC50 [10]: 200 nM
SMILES: CC(C)(O)c1cn(-c2ccc(-c3cccc(S(C)(=O)=O)c3)cc2)c(C(C)(C)c2ccccc2Cl)n1 [BMS-779788]

SMILES: CC(=O)Nc1nc(C)c(S(=O)(=O)Nc2ccc(C(O)(C(F)(F)F)C(F)(F)F)cc2)s1
IC50 [11]: 900 nM
IC50 [12]: 1100 nM
IC50 [13]: 110 nM

IC50 (Histone deacetylase 1): 300 nM
IC50 (Histone deacetylase 2): 300 nM
SMILES: Nc1ccc(-c2cccs2)cc1NC(=O)c1ccc(NC=O)cc1

IC50 [14]: 15.8 nM
SMILES: CN(CCOc1ccc(-c2ccc3c(c2)OCO3)cc1C(C)(C)C)CC(=O)O

IC50 [15]: 69.9 nM
SMILES: CNCc1ccc(-c2cc3cc(F)cc(C(N)=O)c3o2)cc1

IC50 [16]: 1800 nM
SMILES: CN1CCN(c2ccc(/C=C(\C#N)c3ccccc3Br)cc2)CC1

EC50 [17]: 3000 nM
EC50 [18]: 2000 nM
SMILES: CCCCCNC(=O)N1CCC(CN(Cc2ccc(Cl)cc2)Cc2ccc([N+](=O)[O-])s2)C1 (stereo not given) [SR9011]
